Experimental data as given in patent publication US7588903B2, “Use of isogenic drug-resistant cell lines to determine the sequence of chemotherapeutic drug treatment” (priority 2003, dated 2009).
Values joined by “and” are separate entries in the source; they are usually repeats but may differ in a detail not shown here. Identical values can stand only once. Like-named read-outs stand apart in the source and are kept apart here.

How the values were obtained:
MCF-7TAX cells [1] = format: cell-based; settings: for resistance factor (IC50 for MCF-7TAX cells divided by IC50 for MCF-7 cells): 24 h drug treatment, clonogenic assay
Text: (§1) Twice weekly, nonadherent (dead) cells were removed by discarding the existing medium and replacing it with fresh, drug-containing medium. […] At the end of the two-week period, all remaining viable cells were released by trypsinization, diluted 10-fold into PBS, and harvested by centrifugation. The cells were resuspended in fresh H-21 medium, with several aliquots removed for storage and future analysis. […] Nonadherent dead cells were again removed as described above and the process repeated until a drug dose was reached where all cells in the population were killed. Cells that grew at the maximally-tolerated drug concentrations were deemed to be “terminally selected”.
(§2) Thus, the concentration of valspodar used in some experiments was increased to 10 μM.
(§3) Briefly, 5 ml of H21 medium with 10% fetal bovine serum was introduced into 12 tissue culture flasks (25 cm^2 area) and each flask seeded with 2.5×10^5 cells. […] Each sample was vortexed vigorously for 10 s to ensure even distribution of cells within the viscous medium. 1.2 ml of each cellular suspension were placed into 6 well plates and incubated for a minimum of one week at 37° C./5% CO2 until large colonies of cells were visible.

MCF-7DOX cells [2] = format: cell-based; settings: for resistance factor (IC50 for MCF-7DOX cells divided by IC50 for MCF-7 cells): 24 h drug treatment, clonogenic assay
Text: as §1, §2, §3

MCF-7 cells [3] = experiment: Selection of MCF-7 cells in increasing drug concentrations (maximally tolerated dose); format: cell-based, human; settings: 3-fold dose steps, terminally selected
Protocol: Twice weekly, nonadherent (dead) cells were removed by discarding the existing medium and replacing it with fresh, drug-containing medium. […] At the end of the two-week period, all remaining viable cells were released by trypsinization, diluted 10-fold into PBS, and harvested by centrifugation. The cells were resuspended in fresh H-21 medium, with several aliquots removed for storage and future analysis. The remaining cells were incubated with drug at a concentration 3-fold higher than the previous dose. Nonadherent dead cells were again removed as described above and the process repeated until a drug dose was reached where all cells in the population were killed. Cells that grew at the maximally-tolerated drug concentrations were deemed to be “terminally selected”. The maximally-tolerated drug doses during the selection process were 0.3 μM and 6.6 nM for doxorubicin and paclitaxel, respectively.

procaspase-7 = experiment: Immunoblotting of whole cell extracts of MCF-7 cells after drug treatment; format: cell-based, human; settings: 24 h drug treatment
Protocol: (§4) Extraction of proteins from whole cells was performed using RIPA buffer [1% Nonidet P-40, 0.5% sodium deoxycholate, 0.1% SDS, and 1 Complete™ protease inhibitor tablet (Roche Pharmaceuticals, Baie d'Urfe, QC) in 50 ml of PBS]. Prior to use, the RIPA buffer was supplemented with sodium orthovanadate and phenylmethylsulfonyl fluoride at final concentrations of 1 mM and 0.1 mg/ml, respectively. Cultured cells were grown as a monolayer and allowed to reach 70-90% confluence in 10 cm tissue culture plates. Twenty-four hours prior to extraction, some plates of cells were treated with 9 nM doxorubicin or 0.56 nM paclitaxel. After drug treatment, the medium was removed and the cells rinsed twice with PBS. All further steps were carried out on ice to minimize denaturation/proteolysis of the proteins. Chilled RIPA buffer (0.6 ml) was added to each plate, after which the cells were scraped from the plate using a Teflon tape-coated razor blade, and transferred to a 1.5 ml microfuge tube. An additional 0.3 ml of RIPA buffer was added to the plate and the resultant suspension was combined with the lysate. The sample was then passed repeatedly through a 21 gauge needle to lyse the cells and shear any DNA present. The lysates were then incubated on ice for 30 minutes, after which they were clarified by centrifugation at 15,000 g for 20 minutes at 4° C. The supernatants were then removed, mixed well, and aliquots placed in 0.5 ml microfuge tubes and stored at −80° C.
(§5) Proteins ([…]) from whole cell extracts were loaded into each lane of a 10% SDS-polyacrylamide gel, on duplicate gels. After electrophoresis, one of the gels was stained with Coomassie Brilliant Blue R to confirm that similar amounts of protein were loaded on gels. A second gel was electrophoretically transferred to a nitrocellulose membrane and the membrane incubated for one hour in blocking buffer [TBS buffer (20 mM Tris, 150 mM NaCl, pH 7.5) supplemented with 5% skim milk powder] to occupy all remaining protein-binding sites on the membrane. After blocking, the membranes were incubated for 1.5 hours at room temperature with an antibody to either caspase-3 (Santa Cruz Biotechnology, Santa Cruz, Calif., clone E-8), caspase-7 (Pharmingen Laboratories, San Diego, Calif., clone B94-1) or caspase-9 (Santa Cruz Biotechnology, Santa Cruz, Calif., clone C-17). Both antibodies were diluted 1:500 in blocking buffer containing 0.1% Tween 20. The primary antibody was then discarded and the membrane washed exhaustively with TBST (TBS buffer supplemented with 0.1% Tween 20). […]

procaspase-9 [4] = experiment: as above; format: cell-based, human; settings: 24 h, 9 nM doxorubicin or 0.56 nM paclitaxel
Protocol: as §4, §5

MCF-7 cells [5] = experiment: Clonogenic assay, drug-sensitive parental cells; settings: for IC50: Homo sapiens
MCF-7DOX cells [6] = experiment: [3H]-paclitaxel / [14C]-5-fluorouracil accumulation by liquid scintillation; settings: 10 nM paclitaxel, 24 hours
procaspase-9 [7] = experiment: Doxorubicin treatment of PA1 ovarian cell line, procaspase-9 level; format: cell-based; settings: PA1 cells
MCF-7TAX cells [8] = settings: 2 μM doxorubicin
MCF-7DOX cells [9] = experiment: Cellular doxorubicin uptake by flow cytometry; settings: 2 μM doxorubicin, steady state
[10] = MCF7, read-out: IC50 (uptake concentration near the IC50)
[11] = MCF7, read-out: concentration required to kill 50% of the cells (IC50)

Structure (SMILES): N.N.[Cl][Pt][Cl] [cisplatin]
- resistance factor (IC50 for MCF-7TAX cells divided by IC50 for MCF-7 cells) (MCF-7TAX cells [1]): Very little to no cross-resistance

Structure (SMILES): CC[C@]1(O)C[C@@H]2CN(CCc3c([nH]c4ccccc34)[C@@](C(=O)OC)(c3cc4c(cc3OC)N(C)[C@H]3[C@@](O)(C(=O)OC)[C@H](OC(C)=O)[C@]5(CC)C=CCN6CC[C@]43[C@@H]65)C2)C1 [vinblastine, Vinblastine]
- resistance factor (IC50 for MCF-7DOX cells divided by IC50 for MCF-7 cells) (MCF-7DOX cells [2]): approximately 4600 fold

Structure (SMILES): CC(=O)O[C@H]1C(=O)[C@@]2(C)[C@H]([C@H](OC(=O)c3ccccc3)[C@]3(O)C[C@H](OC(=O)[C@H](O)[C@@H](NC(=O)c4ccccc4)c4ccccc4)C(C)=C1C3(C)C)[C@]1(OC(C)=O)CO[C@@H]1C[C@@H]2O [paclitaxel]
- resistance factor (IC50 for MCF-7DOX cells divided by IC50 for MCF-7 cells) (MCF-7DOX cells [2]): 4,700 fold and > 4,000 fold
- resistance factor (IC50 for MCF-7TAX cells divided by IC50 for MCF-7 cells) (MCF-7TAX cells [1]): 42 fold
- maximally-tolerated drug dose during the selection process (MCF-7 cells [3]): 6.6 nM
- effect on procaspase-7 levels (procaspase-7): without effect
- effect on procaspase-9 levels (procaspase-9 [4]): no effect
- IC50 (MCF-7 cells [5]; [10]): ~10 nM
- IC50 (MCF-7 cells [5]; [11]): 0.56 nM
- paclitaxel accumulated as percent of that in MCF-7 cells (MCF-7DOX cells [6]): 2.5%

Structure (SMILES): COc1cccc2c1C(=O)c1c(O)c3c(c(O)c1C2=O)C[C@@](O)(C(=O)CO)C[C@@H]3O[C@H]1C[C@H](N)[C@H](O)[C@H](C)O1 [doxorubicin, Doxorubicin]
- resistance factor (IC50 for MCF-7DOX cells divided by IC50 for MCF-7 cells) (MCF-7DOX cells [2]): 52 fold
- maximally-tolerated drug dose during the selection process (MCF-7 cells [3]): 300 nM
- effect on procaspase-7 levels (procaspase-7): upregulated
- effect on procaspase-9 levels (procaspase-9 [4]): elevated levels
- effect on procaspase-9 levels (procaspase-9 [7]): decrease in procaspase-9 levels
- doxorubicin uptake as percent of uptake in MCF-7 cells (MCF-7TAX cells [8]): 68.6%
- reduction of doxorubicin accumulation compared to MCF-7 cells (MCF-7DOX cells [9]): 91.4%
- IC50 (MCF-7 cells [5]; [11]): 9 nM

Structure (SMILES): CN(Cc1cnc2nc(N)nc(N)c2n1)c1ccc(C(=O)N[C@@H](CCC(=O)O)C(=O)O)cc1 [methotrexate]
- resistance factor (IC50 for MCF-7TAX cells divided by IC50 for MCF-7 cells) (MCF-7TAX cells [1]): Very little to no cross-resistance

Structure (SMILES): C/C=C/C[C@@H](C)C(=O)[C@H]1C(=O)N[C@@H](C(C)C)C(=O)N(C)CC(=O)N(C)[C@@H](CC(C)C)C(=O)N[C@@H](C(C)C)C(=O)N(C)[C@@H](CC(C)C)C(=O)N[C@@H](C)C(=O)N[C@H](C)C(=O)N(C)[C@@H](CC(C)C)C(=O)N(C)[C@@H](CC(C)C)C(=O)N(C)[C@@H](C(C)C)C(=O)N1C [valspodar]
- concentration tolerated without resulting in cell killing (MCF-7DOX cells [2]; MCF-7DOX cells): up to 10 μM
- concentration tolerated without resulting in cell killing (MCF-7TAX cells [1]; MCF-7TAX cells): up to 10 μM
- effect on 5-fluorouracil sensitivity (MCF-7 cells [5]; MCF-7 cells): no effect
- maximum amount which could be added without inducing significant cytotoxicity (MCF-7 cells [5]; MCF-7 cells, one hour at 37° C.): Two
- effect on cell viability (MCF-7 cells [5]; non-expressing MCF-7 cells, 2 μM valspodar (data not shown)): only a slight effect

Structure (SMILES): O=P1(N(CCCl)CCCl)NCCCO1 (stereo not shown) [cyclophosphamide]
- resistance factor (IC50 for MCF-7TAX cells divided by IC50 for MCF-7 cells) (MCF-7TAX cells [1]): Very little to no cross-resistance

Structure (SMILES): CC(=O)O[C@@]12CO[C@@H]1C[C@H](O)[C@@]1(C)C(=O)[C@H](O)C3=C(C)[C@@H](OC(=O)[C@H](O)[C@@H](NC(=O)OC(C)(C)C)c4ccccc4)C[C@@](O)([C@@H](OC(=O)c4ccccc4)[C@H]21)C3(C)C [docetaxel]
- resistance factor (IC50 for MCF-7DOX cells divided by IC50 for MCF-7 cells) (MCF-7DOX cells [2]): 14,600 fold
- resistance factor (IC50 for MCF-7TAX cells divided by IC50 for MCF-7 cells) (MCF-7TAX cells [1]): 46 fold

Structure (SMILES): COc1cc([C@@H]2c3cc4c(cc3[C@@H](O[C@@H]3O[C@@H]5CO[C@@H](C)O[C@H]5[C@H](O)[C@H]3O)[C@H]3COC(=O)[C@H]23)OCO4)cc(OC)c1O [etoposide]
- resistance factor (IC50 for MCF-7DOX cells divided by IC50 for MCF-7 cells) (MCF-7DOX cells [2]): 31 fold
- resistance factor (IC50 for MCF-7TAX cells divided by IC50 for MCF-7 cells) (MCF-7TAX cells [1]): Very little to no cross-resistance

Structure (SMILES): O=c1[nH]cc(F)c(=O)[nH]1 [5-fluorouracil]
- resistance factor (IC50 for MCF-7TAX cells divided by IC50 for MCF-7 cells) (MCF-7TAX cells [1]): 13 fold
- IC50 (MCF-7 cells [5]; [10]): ~1000 nM

Structure (SMILES): CCc1c2c(nc3ccc(OC(=O)N4CCC(N5CCCCC5)CC4)cc13)-c1cc3c(c(=O)n1C2)COC(=O)[C@]3(O)CC [irinotecan]
- resistance factor (IC50 for MCF-7TAX cells divided by IC50 for MCF-7 cells) (MCF-7TAX cells [1]): Very little to no cross-resistance

Structure (SMILES): COc1cccc2c1C(=O)c1c(O)c3c(c(O)c1C2=O)C[C@@](O)(C(=O)CO)C[C@@H]3O[C@H]1C[C@H](N)[C@@H](O)[C@H](C)O1 [epirubicin]
- resistance factor (IC50 for MCF-7DOX cells divided by IC50 for MCF-7 cells) (MCF-7DOX cells [2]): 124 fold
- resistance factor (IC50 for MCF-7TAX cells divided by IC50 for MCF-7 cells) (MCF-7TAX cells [1]): ~13 fold
